Test results published in ChEMBL document CHEMBL4359843, “Linear and Rationally Designed Stapled Peptides Abrogate TLR4 Pathway and Relieve Inflammatory Symptoms in Rheumatoid Arthritis Rat Model” (J Med Chem, 2019).
The source made the active and inactive calls. The calls are words filed in the database; no cut-off is given here.

What was measured:
RAW264.7 [1] = test: Cytotoxicity against mouse RAW264.7 cells assessed as reduction in cell viability at 20 to 80 uM after 24 hrs by MTT assay; format: cell-based; conditions: raw264.7, 24 h
Toll-like receptor 4 = Toll-like receptor 4 (Homo sapiens, UniProt O00206); test: Binding affinity to recombinant human TLR4 using phage displayed compound by Phage-ELISA
Sequence of Toll-like receptor 4 (O00206 whole entry): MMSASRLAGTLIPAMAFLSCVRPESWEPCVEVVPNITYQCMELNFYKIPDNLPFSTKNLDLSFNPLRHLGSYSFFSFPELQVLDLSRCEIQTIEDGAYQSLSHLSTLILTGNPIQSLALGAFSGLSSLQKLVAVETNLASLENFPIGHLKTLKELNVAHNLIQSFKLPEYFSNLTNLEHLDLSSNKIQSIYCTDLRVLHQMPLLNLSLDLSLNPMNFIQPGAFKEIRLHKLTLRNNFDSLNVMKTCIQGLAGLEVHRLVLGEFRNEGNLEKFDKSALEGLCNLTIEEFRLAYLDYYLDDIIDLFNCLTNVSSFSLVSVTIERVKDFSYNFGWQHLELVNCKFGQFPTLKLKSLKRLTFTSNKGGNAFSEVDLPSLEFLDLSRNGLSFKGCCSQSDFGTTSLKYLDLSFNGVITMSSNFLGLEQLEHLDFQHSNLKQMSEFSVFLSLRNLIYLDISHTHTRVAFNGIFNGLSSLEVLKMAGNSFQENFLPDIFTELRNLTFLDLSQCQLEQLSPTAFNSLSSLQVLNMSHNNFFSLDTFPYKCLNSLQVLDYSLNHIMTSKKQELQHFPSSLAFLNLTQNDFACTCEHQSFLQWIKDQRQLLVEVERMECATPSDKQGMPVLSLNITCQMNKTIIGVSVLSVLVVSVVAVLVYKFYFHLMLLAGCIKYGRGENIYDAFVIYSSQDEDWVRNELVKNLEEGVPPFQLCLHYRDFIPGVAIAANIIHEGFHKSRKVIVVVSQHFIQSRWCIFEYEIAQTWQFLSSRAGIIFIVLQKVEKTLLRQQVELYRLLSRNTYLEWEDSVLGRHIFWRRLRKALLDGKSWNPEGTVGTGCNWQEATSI

RAW264.7 [2] = test: Cytotoxicity against mouse RAW264.7 cells assessed as reduction in cell viability at 100 uM after 24 hrs by MTT assay; format: cell-based; conditions: raw264.7, 24 h

Row | Substance | Activity (RAW264.7 [1]) | Activity (Toll-like receptor 4) | Activity (RAW264.7 [2])
1 | H-FGRYFPCLNWLG-OH | Non-Toxic | Active | Toxic
2 | H-FWIFSRYPGASA-OH | Non-Toxic | Active | Toxic
3 | H-HWWHFHSLRWLG-OH | Non-Toxic | Active | Toxic
4 | H-LWWCFHSLRWLG-OH | Non-Toxic | Active | Toxic
